Assay results from patent US12534456B2, “Heterocyclyl pyridines as novel fungicides” (Bayer Aktiengesellschaft, priority 2020, dated 2026).

Test: physchem
Type: physicochemical
Description: Measurement of Log P values as provided herein was performed according to EEC directive 79/831 Annex V.A8 by HPLC (High Performance Liquid Chromatography) on reversed phase columns with the following methods: • ^[a]
If more than one Log P value is available within the same method, all the values are given and separated by “+”.
Lambda-max-values were determined using UV-spectra from 200 nm to 400 nm and the peak values of the chromatographic signals

LogP	SMILES	chromatographic logP (Table 3, compounds of formula (1), method [a]: LC-UV, acidic range, 0.1% formic acid in water and acetonitrile)
3.44^[a]	Cc1cc(Cl)ccc1CC1CON=C(c2cc(Cl)ncc2Br)N1 (stereo not drawn) [7-06]	
3.44^[a]	Cc1cccc(CC2CON=C(c3cc(Cl)ncc3Br)N2)c1Cl (stereo not drawn) [7-07]	
3.46^[a]	Cc1ccc(Cl)c(CC2CON=C(c3cc(Cl)ncc3Br)N2)c1 (stereo not drawn) [7-09]	
0.69^[a]	Cc1ccc(CC(N)CC(N)=O)c(C)c1 (stereo not drawn) [13-09]	
5.74^[a]	Cc1ccc(CC(CCl)NC(=NO)c2c(Oc3cccc(C(F)(F)F)c3)cnc(Cl)c2F)c(C)c1 (stereo not drawn) [16-01]	
4.80^[a]	Cc1ccc(CC(CCl)NC(=NO)c2cc(Cl)ncc2Oc2cccc(C(F)(F)F)c2)c(C)c1 (stereo not drawn) [16-03]	
4.59^[a]	Cc1ccc(CC(CCl)NC(=NO)c2cc(Cl)ncc2Oc2cccc(C(F)(F)F)c2)cc1 (stereo not drawn) [16-04]	
5.28^[a]	Cc1ccc(CC(CCl)NC(=NO)c2c(Oc3cccc(C(F)(F)F)c3)cnc(Cl)c2I)c(C)c1 (stereo not drawn) [16-05]	
5.16^[a]	Cc1ccc(CC(CCl)NC(=NO)c2cc(Cl)nc(F)c2Oc2cccc(C(F)(F)F)c2)c(C)c1 (stereo not drawn) [16-06]	
5.35^[a]	Cc1ccc(CC(CCl)NC(=NO)c2cc(Cl)nc(Cl)c2Oc2cccc(C(F)(F)F)c2)c(C)c1 (stereo not drawn) [16-07]	
4.97^[a]	ON=C(NC(CCl)Cc1ccc(C(F)(F)F)cc1Cl)c1cc(Cl)ncc1Oc1cccc(C(F)(F)F)c1 (stereo not drawn) [16-09]	
4.59^[a]	ON=C(NC(CCl)Cc1csc(C(F)(F)F)c1)c1cc(Cl)ncc1Oc1cccc(C(F)(F)F)c1 (stereo not drawn) [16-10]	
4.48^[a]	ON=C(NC(CCl)Cc1csc(Cl)c1)c1cc(Cl)ncc1Oc1cccc(C(F)(F)F)c1 (stereo not drawn) [16-11]	
4.19^[a]	Cc1ccc(C(CCl)NC(=NO)c2cc(Cl)ncc2Oc2cccc(C(F)(F)F)c2)cc1 (stereo not drawn) [16-12]	
3.85^[a]	Cc1ccc(CC(CCl)NC(=NO)c2cc(Cl)ncc2Br)c(Cl)c1 (stereo not drawn) [18-02]	
4.12^[a]	COc1cc(C(=NO)NC(CCl)Cc2ccc(C)cc2Cl)c(Br)cn1 (stereo not drawn) [18-03]	
2.28^[a]	O=C(O)c1c(Oc2cccc(C(F)(F)F)c2)cnc(Cl)c1F [Compound 1-01]	
2.54^[a]	CC(=O)c1cc(C(=O)O)c(Oc2cccc(C(F)(F)F)c2)cn1 [Compound 1-02]	
3.59^[a]	COC(=O)c1cc(C(C)=O)ncc1Oc1cccc(C(F)(F)F)c1 [Compound 1-04]	
4.70^[a]	C=C(OCC)c1cc(C(=O)OC)c(Oc2cccc(C(F)(F)F)c2)cn1 [Compound 1-05]	
2.97^[a]	O=C(O)c1cc(Cl)ncc1Oc1cccc(C2CC2)c1F [Compound 1-06]	
2.60^[a]	Cc1cccc(Oc2cnc(Cl)cc2C(=O)O)c1 [Compound 1-08]	
2.34^[a]	COc1cccc(Oc2cnc(Cl)cc2C(=O)O)c1 [Compound 1-09]	

Further lines, the compound ahead of its results:

SMILES	LogP	chromatographic logP (Table 3, compounds of formula (1), method [a]: LC-UV, acidic range, 0.1% formic acid in water and acetonitrile)
Cc1ccc(CC2CON=C(c3cc(Cl)ncc3Oc3cccc(Cl)c3)N2)c(C)c1 (single isomer, unassigned) [Compound I-011]	4.53^[a]	
Cc1ccc(CC2CON=C(c3cc(Cl)ncc3Oc3cccc(Cl)c3)N2)c(C)c1 (single isomer, unassigned) [Compound I-012]	4.53^[a]	
Cc1ccc(CC2CON=C(c3cc(Cl)ncc3Oc3cccc(C4CC4)c3)N2)c(C)c1 (single isomer, unassigned) [Compound I-019]	4.89^[a]	
Cc1ccc(CC2CON=C(c3cc(Cl)ncc3Oc3cccc(C4CC4)c3)N2)c(C)c1 (single isomer, unassigned) [Compound I-020]	4.89^[a]	
Cc1ccc(CC2CON=C(c3cc(Cl)ncc3Oc3cccc(C4CC4)c3F)N2)c(C)c1 (single isomer, unassigned) [Compound I-021]	4.93^[a]	
Cc1ccc(CC2CON=C(c3cc(Cl)ncc3Oc3cccc(C4CC4)c3F)N2)c(C)c1 (single isomer, unassigned) [Compound I-022]	4.93^[a]	
O=C(NC(CON1C(=O)c2ccccc2C1=O)Cc1ccc(Br)cc1Cl)c1cc(Cl)ncc1Oc1cccc(C2CC2)c1 (stereo not drawn) [3-02]	5.75^[a]	
O=C(NC(CON1C(=O)c2ccccc2C1=O)Cc1ccc(Cl)cc1Cl)c1cc(Cl)ncc1Oc1cccc(C2CC2)c1 (stereo not drawn) [3-03]	5.62^[a]	
O=C(NC(CON1C(=O)c2ccccc2C1=O)Cc1ccc(Cl)cc1Cl)c1cc(Cl)ncc1Oc1cccc(C2CC2)c1F (stereo not drawn) [3-04]	5.54^[a]	
O=C(NC(CON1C(=O)c2ccccc2C1=O)Cc1ccc(Br)cc1Cl)c1cc(Cl)ncc1Oc1cccc(C2CC2)c1F (stereo not drawn) [3-05]	5.62^[a]	
Cc1ccc(CC(CON2C(=O)c3ccccc3C2=O)NC(=O)c2cc(Cl)ncc2Oc2cccc(C3CC3)c2F)c(C)c1 (stereo not drawn) [3-06]	5.38^[a]	
Cc1cccc(Oc2cnc(Cl)cc2C(=O)NC(CON2C(=O)c3ccccc3C2=O)Cc2ccc(C)cc2C)c1 (stereo not drawn) [3-07]	5.16^[a]	
COc1cccc(Oc2cnc(Cl)cc2C(=O)NC(CON2C(=O)c3ccccc3C2=O)Cc2ccc(Br)cc2Cl)c1 (stereo not drawn) [3-08]	5.05^[a]	
COc1cccc(Oc2cnc(Cl)cc2C(=O)NC(CON2C(=O)c3ccccc3C2=O)Cc2ccc(C)cc2C)c1 (stereo not drawn) [3-09]	4.80^[a]	
O=C(NC(CON1C(=O)c2ccccc2C1=O)Cc1ccc(Br)cc1Cl)c1cc(Cl)ncc1Oc1cccc(C(F)F)c1 (stereo not drawn) [3-10]	5.00^[a]	
Cc1ccc(CC(CON2C(=O)c3ccccc3C2=O)NC(=O)c2cc(Cl)ncc2Oc2cccc(C(F)F)c2)c(C)c1 (stereo not drawn) [3-11]	4.69^[a]	
Cc1ccc(CC(CON2C(=O)c3ccccc3C2=O)NC(=O)c2cc(Cl)ncc2Oc2cccc(Cl)c2)c(C)c1 (stereo not drawn) [3-12]	5.11^[a]	
Cc1ccc(CC(CON2C(=O)c3ccccc3C2=O)NC(=O)c2cc(Cl)ncc2Oc2cccc(C(F)(F)F)c2)c(C)c1 (stereo not drawn) [3-13]	5.20^[a]	
NOCC(Cc1ccc(Br)cc1Cl)NC(=O)c1cc(Cl)ncc1Oc1cccc(C2CC2)c1 (stereo not drawn) [4-02]	4.15^[a]	
NOCC(Cc1ccc(Cl)cc1Cl)NC(=O)c1cc(Cl)ncc1Oc1cccc(C2CC2)c1 (stereo not drawn) [4-03]	4.06^[a]	
NOCC(Cc1ccc(Cl)cc1Cl)NC(=O)c1cc(Cl)ncc1Oc1cccc(C2CC2)c1F (stereo not drawn) [4-04]	3.96^[a]	
NOCC(Cc1ccc(Br)cc1Cl)NC(=O)c1cc(Cl)ncc1Oc1cccc(C2CC2)c1F (stereo not drawn) [4-05]	4.08^[a]	
Cc1ccc(CC(CON)NC(=O)c2cc(Cl)ncc2Oc2cccc(C3CC3)c2F)c(C)c1 (stereo not drawn) [4-06]	3.72^[a]	
Cc1cccc(Oc2cnc(Cl)cc2C(=O)NC(CON)Cc2ccc(C)cc2C)c1 (stereo not drawn) [4-07]	3.37^[a]	
COc1cccc(Oc2cnc(Cl)cc2C(=O)NC(CON)Cc2ccc(Br)cc2Cl)c1 (stereo not drawn) [4-08]	3.39^[a]	
COc1cccc(Oc2cnc(Cl)cc2C(=O)NC(CON)Cc2ccc(C)cc2C)c1 (stereo not drawn) [4-09]	3.08^[a]	

SMILES	LogP	chromatographic logP (Table 3, compounds of formula (1), method [a]: LC-UV, acidic range, 0.1% formic acid in water and acetonitrile)
NOCC(Cc1ccc(Br)cc1Cl)NC(=O)c1cc(Cl)ncc1Oc1cccc(C(F)F)c1 (stereo not drawn) [4-10]	3.46^[a]	
Cc1ccc(CC(CON)NC(=O)c2cc(Cl)ncc2Oc2cccc(C(F)F)c2)c(C)c1 (stereo not drawn) [4-11]	3.09^[a]	
Cc1ccc(CC(CON)NC(=O)c2cc(Cl)ncc2Oc2cccc(Cl)c2)c(C)c1 (stereo not drawn) [4-12]	3.35^[a]	
Cc1ccc(CC(CCN)NC(=O)c2cc(Cl)ncc2Oc2cccc(C(F)(F)F)c2)c(C)c1 (stereo not drawn) [4-13]	2.41^[a]	
Cc1ccc(CC(CCNC(c2ccccc2)(c2ccccc2)c2ccccc2)NC(=O)c2cc(Cl)ncc2Oc2cccc(C(F)(F)F)c2)c(C)c1 (stereo not drawn) [4-14]	5.35^[a]	
Cc1ccc(CC2CON=C(c3cc(Cl)ncc3Br)N2)c(C)c1 (stereo not drawn) [7-01]	3.31^[a]	
Clc1ccc(CC2CON=C(c3cc(Cl)ncc3Br)N2)c(Cl)c1 (stereo not drawn) [7-04]	3.45^[a]	
Cc1ccc(CC2CON=C(c3cc(Cl)ncc3Br)N2)c(Cl)c1 (stereo not drawn) [7-05]	3.38^[a]	
Cc1ccc(CC(CCl)NC(=O)c2c(Oc3cccc(C(F)(F)F)c3)cnc(Cl)c2F)c(C)c1 (stereo not drawn) [14-01]	5.03^[a]	
Cc1ccc(CC(CCl)NC(=O)c2cc(Cl)ncc2Oc2cccc(C(F)(F)F)c2)c(C)c1 (stereo not drawn) [14-02]	5.32^[a]	
Cc1ccc(CC(CCl)NC(=O)c2cc(Cl)ncc2Oc2cccc(C(F)(F)F)c2)cc1 (stereo not drawn) [14-03]	5.00^[a]	
Cc1ccc(CC(CCl)NC(=O)c2c(Oc3cccc(C(F)(F)F)c3)cnc(Cl)c2I)c(C)c1 (stereo not drawn) [14-04]	5.18^[a]	
COc1cc(C(=O)NC(CCl)Cc2ccc(C)cc2C)c(Oc2cccc(C(F)(F)F)c2)cn1 (stereo not drawn) [14-05]	5.26^[a]	
Cc1ccc(CC(CCl)NC(=O)c2cc(Cl)nc(F)c2Oc2cccc(C(F)(F)F)c2)c(C)c1 (stereo not drawn) [14-06]	5.45^[a]	
Cc1ccc(CC(CCl)NC(=O)c2cc(Cl)nc(Cl)c2Oc2cccc(C(F)(F)F)c2)c(C)c1 (stereo not drawn) [14-07]	5.45^[a]	
Cc1cc(Br)ccc1CC(CCl)NC(=O)c1cc(Cl)ncc1Oc1cccc(C(F)(F)F)c1 (stereo not drawn) [14-08]	5.31^[a]	
O=C(NC(CCl)Cc1ccc(C(F)(F)F)cc1Cl)c1cc(Cl)ncc1Oc1cccc(C(F)(F)F)c1 (stereo not drawn) [14-09]	5.36^[a]	
O=C(NC(CCl)Cc1csc(C(F)(F)F)c1)c1cc(Cl)ncc1Oc1cccc(C(F)(F)F)c1 (stereo not drawn) [14-10]	4.96^[a]	
O=C(NC(CCl)Cc1csc(Cl)c1)c1cc(Cl)ncc1Oc1cccc(C(F)(F)F)c1 (stereo not drawn) [14-11]	4.96^[a]	
Cc1ccc(C(CCl)NC(=O)c2cc(Cl)ncc2Oc2cccc(C(F)(F)F)c2)cc1 (stereo not drawn) [14-12]	4.49^[a]	
Cc1ccc(CC(CCl)NC(=O)c2cc(Cl)ncc2Br)c(Cl)c1 (stereo not drawn) [17-02]	3.94^[a]	
COc1cc(C(=O)NC(CCl)Cc2ccc(C)cc2Cl)c(Br)cn1 (stereo not drawn) [17-03]	3.94^[a]	
Cc1cc(Cl)ccc1CC(CCl)NC(=O)c1cc(Cl)ncc1Br (stereo not drawn) [17-04]	3.98^[a]	
Cc1cccc(CC(CCl)NC(=O)c2cc(Cl)ncc2Br)c1Cl (stereo not drawn) [17-05]	3.97 ^[a]	
COC(=O)c1cc(C#C[Si](C)(C)C)ncc1Oc1cccc(C(F)(F)F)c1 [Compound 1-03]	5.35^[a]	
COC(=O)c1cc(Cl)ncc1Oc1cccc(C(F)(F)F)c1 [Compound 1-07, methyl 2-chloro-5-[3-(trifluoromethyl)phenoxy]isonicotinate]		3.84
